Experimental data as given in patent US9428507B2, “Compounds for the treatment of malaria” (The Broad Institute, Inc., priority 2013, dated 2016).
Where two headings read alike, the source gives them in different places.

Tested on: Dd2 strain of P. falciparum
Assay: Activity against the Dd2 strain of P. falciparum (SYBR Green I, 72-h incubation)
Format: cell-based
Conditions: read-out: EC^50 Dd2
Outline: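 Dd2 parasites at 1% parasitemia and 1.0% hematocrit in albumax II screening medium, 72 h at 37° C under 93% N2/4% CO2/3% O2; final DMSO 0.125%. Growth read as SYBR Green I fluorescence (485/530 nm) after lysis and 24 h staining. 20 μM mefloquine defined background, DMSO baseline.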

[1] = Plasmodium falciparum, DD2, 72 h

Row | EC50 [1] [µM] | Compound | EC50 [µM]
1 | 2.39 to 2.92 | CCCN1CC2(CCN(C(=O)Nc3ccccc3F)CC2)c2c([nH]c3cc(OC)ccc23)[C@@H]1CO [Compound 49, (R)-N-(2-fluorophenyl)-1′-(hydroxymethyl)-7′-methoxy-2′-propyl-1′,2′,3′,9′-tetrahydrospiro[piperidine-4,4′-pyrido[3,4-b]indole]-1-carboxamide] | –
2 | 0.113 | COc1ccc2c3c([nH]c2c1)[C@H](CO)N(S(=O)(=O)C1CC1)CC31CCN(C(=O)Nc2ccccc2F)CC1 [Compound 145, (R)-2′-(cyclopropylsulfonyl)-N-(2-fluorophenyl)-1′-(hydroxymethyl)-7′-methoxy-1′,2′,3′,9′-tetrahydrospiro [piperidine-4,4′-pyrido[3,4-b]indole]-1-carboxamide] | –
3 | 0.892 | COc1ccc2c3c(n(C)c2c1)[C@H](CO)N(C(=O)Nc1ccc(F)cc1)CC31CCN(C(=O)c2ccc3c(c2)OCO3)CC1 [Compound 131, (R)-1-(benzo[d] [1,3]dioxole-5-carbonyl)-N-(4-fluorophenyl)-1′-(hydroxymethyl)-7′-methoxy-9′-methyl-3′,9′-dihydrospiro [piperidine-4,4′-pyrido[3,4-b]indole]-2′(1′H)-carboxamide] | –
4 | 4.43 | COc1ccc2c3c([nH]c2c1)C(C)(C)NCC31CCN(C(=O)OC(C)(C)C)CC1 [Compound 11] | –
5 | 1.96 | CCC(=O)N1CCC2(CC1)CN(Cc1cc(F)ccc1F)[C@H](CO)c1[nH]c3cc(OC)ccc3c12 [Compound 118, (S)-1-(2′-(2,5-difluorobenzyl)-1′-(hydroxymethyl)-7′-methoxy-1′,2′,3′,9′-tetrahydrospiro [piperidine-4,4′-pyrido[3,4-b]indol]-1-yl) propan-1-one] | –
6 | 1.1 | CCC(=O)N1CC2(CCN(C(=O)Nc3ccccc3F)CC2)c2c([nH]c3cc(OC)ccc23)[C@H]1CO [Compound 113, (S)-N-(2-fluorophenyl)-1′-(hydroxymethyl)-7′-methoxy-2′-propionyl-1′,2′,3′,9′-tetrahydrospiro [piperidine-4,4′-pyrido[3,4-b]indole]-1-carboxamide] | –
7 | – | Mixture of (1R,3′R) and (1R,3′S)-2-acetyl-1- (((tert-butyldimethylsilyl) oxy)methyl)-N- (2-fluorophenyl)-7-methoxy- 1,2,3,9-tetrahydrospiro [pyrido[3,4-b]indole- 4,3′-pyrrolidine]-1′- carboxamide compound with (1R,3′S)- 2-acetyl-1- (((tert-butyldimethylsilyl) oxy)methyl)-N-(2- fluorophenyl)-7-methoxy- 1,2,3,9- tetrahydrospiro[pyrido [3,4-b]indole-4-3′- pyrrolidine]-1′- carboxamide (1:1) [Compound 75] | 3.21
8 | 0.014 to 0.058 | CCS(=O)(=O)N1CC2(CCN(C(=O)Nc3ccccc3F)CC2)c2c([nH]c3cc(OC)ccc23)[C@@H]1CO [Compound 150, (R)-2′-(ethylsulfonyl)-N-(2-fluorophenyl)-1′-(hydroxymethyl)-7′-methoxy-1′,2′,3′,9′-tetrahydrospiro [piperidine-4,4′-pyrido[3,4-b]indole]-1-carboxamide] | –
9 | 3.78 to 4.12 | COc1ccc2c3c([nH]c2c1)[C@H](CO)N(C)CC31CCN(C(=O)Nc2ccccc2F)CC1 [Compound 61, (R)-N-(2-fluorophenyl)-1′-(hydroxymethyl)-7′-methoxy-2′-methyl-1′,2′,3′,9′-tetrahydrospiro[piperidine-4,4′-pyrido[3,4-b]indole]-1-carboxamide] | –
10 | 2.91 | COc1ccc2c3c([nH]c2c1)[C@H](CO)N(C(=O)C(C)C)CC31CCN(C(=O)Nc2ccccc2F)CC1 [Compound 9] | –
11 | 1.77 | COc1ccc2c3c([nH]c2c1)[C@H](CO)N(C(C)=O)CC31CCN(C(=O)Nc2ccc(F)cc2)CC1 [Compound 8, (R)-2′-acetyl-N-(4-fluorophenyl)-1′-(hydroxymethyl)-7′ -methoxy-1′,2′,3′,9′-tetrahydrospiro[piperidine-4,4′-pyrido[3,4-b]indole]-1-carboxamide] | –
12 | 0.423 | CCCC(=O)N1CC2(CCN(C(=O)Nc3ccccc3F)CC2)c2c([nH]c3cc(OC)ccc23)[C@@H]1CO [Compound 36, (R)-2′-butyryl-N-(2-fluorophenyl)-1′-(hydroxymethyl)-7′-methoxy-1′,2′,3′,9′-tetrahydrospiro[piperidine-4,4′-pyrido[3,4-b]indole]-1-carboxamide] | –
13 | 1.08 | COc1ccc2c3c([nH]c2c1)[C@H](CO)N(S(=O)(=O)c1ccc(C)cc1)CC31CCN(C(=O)Nc2ccccc2F)CC1 [Compound 144, (R)-N-(2-fluorophenyl)-1′-(hydroxymethyl)-7′-methoxy-2′-tosyl-1′,2′,3′,9′-tetrahydrospiro [piperidine-4,4′-pyrido[3,4-b]indole]-1-carboxamide] | –
14 | 2.47 | COc1ccc2c3c([nH]c2c1)[C@H]1COCC(=O)N1CC31CCN(C(=O)Nc2ccccc2F)CC1 [Compound 140, (S)-N-(2-fluorophenyl)-10-methoxy-4-oxo-1,3,4,6,12,12b-hexahydrospiro [[1,4]oxazino[4′,3′:1 ,2]pyrido[3,4-b]indole-7,4′-piperidine]-1′-carboxamide] | –
15 | 0.03 to 0.13 | COc1ccc2c3c([nH]c2c1)[C@H](CC(F)(F)F)N(C(C)=O)CC31CCN(C(=O)Nc2ccccc2F)CC1 [Compound 74, (S)-2′-acetyl-N-(2-fluorophenyl)-7′-methoxy-1′-(2,2,2-trifluoroethyl)-1′,2′,3′,9′-tetrahydrospiro[piperidine-4,4′-pyrido[3,4-b]indole]-1-carboxamide] | –
16 | 0.175 to 0.41 | COc1ccc2c3c([nH]c2c1)[C@H](CO)N(C(C)=O)CC31CCN(C(=O)Nc2ccccc2)CC1 [Compound 35, (R)-2′-acetyl-1′-(hydroxymethyl)-7′-methoxy-N-phenyl-1′,2′,3′,9′-tetrahydrospiro[piperidine-4,4′-pyrido[3,4-b]indole]-1-carboxamide] | –
17 | 8.5 | COc1ccc2c3c([nH]c2c1)[C@H](CO)N(C(C)=O)CC31CCN(c2nc3ccccc3o2)CC1 [Compound 77, (R)-1-(1-(benzo[d]oxazol-2-yl)-1′-(hydroxymethyl)-7′-methoxyspiro [piperidine-4,4′-pyrido[3,4-b]indol]-2′(1′H,3′H,9′H)-yl)ethanone] | –
18 | 0.49 | COc1ccc2c3c([nH]c2c1)[C@H](CO)NCC31CCN(C(=O)Nc2ccc3c(c2)OCO3)CC1 [Compound 102, (R)-N-(benzo[d] [1,3]dioxol-5-yl)-1′-(hydroxymethyl)-7′-methoxy-1′,2′,3′,9′-tetrahydrospiro [piperidine-4,4′-pyrido[3,4-b]indole]-1-carboxamide] | –
19 | 3.62 | COCCOCOC[C@H]1c2[nH]c3cc(OC)ccc3c2C2(CCN(C(=O)Nc3ccccc3F)CC2)CN1C(C)=O [Compound 64, (R)-2′-acetyl-N-(2-fluorophenyl)-7′-methoxy-1′-(((2-methoxyethoxy)methoxy)methyl)-1′,2′,3′,9′-tetrahydrospiro[piperidine-4,4′-pyrido[3,4-b]indole]-1-carboxamide] | –
20 | 0.269 | COc1ccc2c3c([nH]c2c1)[C@H](CO)N(S(=O)(=O)C(F)(F)F)CC31CCN(C(=O)Nc2ccccc2F)CC1 [Compound 146, (R)-N-(2-fluorophenyl)-1′-(hydroxymethyl)-7′-methoxy-2′-((trifluoromethyl)sulfonyl)-1′,2′,3′,9′-tetrahydrospiro [piperidine-4,4′-pyrido[3,4-b]indole]-1-carboxamide] | –

Row | Compound | EC50 [1] [µM] | EC50 [µM]
21 | COc1ccc2c3c(n(C)c2c1)[C@@H](CO)N(C(=O)CN(C)C)CC31CCN(Cc2cccnc2)CC1 [Compound 90, (S)-2-(dimethylamino)-1-(1′-(hydroxymethyl)-7′-methoxy-9′-methyl-1-(pyridin-3-ylmethyl)spiro [piperidine-4,4′-pyrido[3,4-b]indol]-2′(1′H,3′H,9′H)-yl)ethanone] | 2.61 | –
22 | COc1ccc2c3c([nH]c2c1)[C@H](CO[Si](C)(C)C(C)(C)C)NCC31CCN(C(=O)Nc2ccccc2F)CC1 [Compound 40, (R)-1′-(((tert-butyldimethylsilyl)oxy)methyl)-N-(2-fluorophenyl)-7′-methoxy-1′,2′,3′,9′-tetrahydrospiro[piperidine-4,4′-pyrido[3,4-b]indole]-1-carboxamide] | 1.22 | –
23 | COc1ccc2c3c([nH]c2c1)[C@@H](CO)N(C(=O)CN(C)C)CC31CCN(CC2CCCCC2)CC1 [Compound 121, (S)-1-(1-(cyclohexylmethyl)-1′-(hydroxymethyl)-7′-methoxyspiro [piperidine-4,4′-pyrido[3,4-b]indol]-2′(1′H,3′H,9′H)-yl)-2-(dimethylamino) ethanone] | 0.36 | –
24 | COc1ccc2c3c([nH]c2c1)C(CO)N(C(=O)Nc1ccc(F)cc1)CC31CCN(Cc2cc(-c3ccccc3)on2)CC1 (stereo in doubt) [Compound 111, (R)-N-(4-fluorophenyl)-1′-(hydroxymethyl)-7′-methoxy-1-((5-phenylisoxazol-3-yl)methyl)-3′,9′-dihydrospiro [piperidine-4,4′-pyrido[3,4-b]indole]-2′(1′H)-carboxamide] | 0.451 | –
25 | COc1ccc2c3c([nH]c2c1)[C@H](CO)N(C(C)=O)CC31CCN(CCc2ccccc2F)CC1 [Compound 27, (R)-1-(1-(2-fluorophenethyl)-1′-(hydroxymethyl)-7′-methoxyspiro[piperidine-4,4′-pyrido[3,4-b]indol]-2′(1′H,3′H,9′H)-yl) ethanone] | 2.73 | –
26 | COc1ccc2c3c(n(C)c2c1)[C@@H](CO)N(Cc1ccccc1OC)CC31CCN(CC2CC2)CC1 [Compound 83, (S)-(1-(cyclopropylmethyl)-7′-methoxy-2′-(2-methoxybenzyl)-9'-methyl-1′,2′,3′,9′-tetrahydrospiro [piperidine-4,4′-pyrido[3,4-b]indol]-1′-yl) methanol] | 0.522 | –
27 | CCCN1CCC2(CC1)CN(Cc1ccccc1OC)[C@H](CO)c1c2c2ccc(OC)cc2n1C [Compound 92, (S)-(7′-methoxy-2′-(2-methoxybenzyl)-9′-methyl-1-propyl-1′,2′,3′,9′-tetrahydrospiro [piperidine-4,4′-pyrido[3,4-b]indol]-1′-yl) methanol] | 0.681 | –
